Source: patent US20010025105A1, “Certain substituted 1-aryl-3-piperazine-1'-yl propanones” (Molecular Geriatarics Corporation, priority 1997, published 2001)
Structures can show the parent of a compound that is named as a salt.

melting point | Structure (SMILES)
188 to 189 °C | O=C(CCN1CCN(C(=O)c2sc3ccccc3c2Cl)CC1)c1ccc(Br)s1 (as salt: hydrochloride) [Example 86, 1-(5″-Bromo-2″-thienyl)-3-[4′-(3′″-chlorobenzo[b]-2′″-thienoyl)-1′-piperazinyl]-1-propanone dihydrochloride]
133 to 134 °C | O=C(CCN1CCN(Cc2ccccc2)CC1)c1ccc2c(c1)-c1ccccc1-2 [Example 58, 1-(Biphenylen-2″-yl)-3-(4′-benzyl-1′-piperazinyl)-1-propanone]
225 °C (dec.) | O=C(CCN1CCN(Cc2ccccc2)CC1)c1ccc2c(c1)Cc1ccccc1-2 (as salt: hydrochloride) [Example 28, 1-(Fluoren-2″-yl)-3-(4′-benzyl-1′-piperazinyl)-1-propanone dihydrochloride]
255 °C | O=C(CCN1CCN(Cc2ccccc2)CC1)c1cc(C(F)(F)F)cc(C(F)(F)F)c1 (as salt: hydrochloride) [Example 9, 1-[3″,5″-Bis-(trifluoromethyl)phenyl]-3-(4′-benzyl-1′-piperazinyl)-1-propanone dihydrochloride]
225 to 227 °C | O=C(CCN1CCN(C(=O)c2c(F)cccc2F)CC1)c1ccc([N+](=O)[O-])cc1 (as salt: hydrochloride) [Example 40, 1-(p-Nitrophenyl)-3-[4′-(2″,6″-difluorobenzoyl)-1′-piperazinyl]-1-propanone hydrochloride]
224 to 247 °C | O=C(CCN1CCN(Cc2ccccc2)CC1)c1ccc(-c2ccccc2)s1 (as salt: hydrochloride) [Example 56, 1-(5″-Phenyl-2″-thienyl)-3-(4′-benzyl-1′-piperazinyl)-1-propanone dihydrochloride]
224 °C (dec.) | O=C(CCN1CCN(Cc2ccccc2)CC1)c1ccc(I)cc1 (as salt: hydrochloride) [Example 1, 1-(piodophenyl)-3-(4′-benzyl-1′-piperazinyl)-1-propanonedihydrochloride]
205 to 208 °C | O=C(CCN1CCC(Cc2ccccc2)CC1)c1ccc(Br)s1 (as salt: hydrochloride) [Example 99, 1-(5″-Bromo-2″-thienyl)-3-(4′-benzyl-1′-piperidinyl)-1-propanone hydrochloride]
217 to 218 °C | O=C(CCN1CCN(C(=O)c2ccccc2F)CC1)c1ccc([N+](=O)[O-])cc1 (as salt: hydrochloride) [Example 54, 1-(p-Nitrophenyl)-3-(4′-o-fluorobenzoyl-1′-piperazinyl)-1-propanone dihydrochloride]
200 °C (dec.) | O=C(CCN1CCN(Cc2ccccc2)CC1)c1ccc2c(c1)CCCC2 (as salt: hydrochloride) [Example 20, 1-(1″,2″,3″,4″-Tetrahydronaphth-6″-yl)-3-(4′-benzyl-1′-piperazinyl)-1-propanone dihydrochloride]

Structure (SMILES) | melting point
CS(=O)(=O)Nc1ccc(C(=O)CCN2CCN(Cc3ccccc3)CC2)cc1 (as salt: hydrochloride) [Example 26, 1-[-p-(Methanesulfonamido)phenyl]-3-(4′-benzyl-1′-piperazinyl)-1-propanone dihydrochloride] | 202 to 205 °C
O=C(CCN1CCC(C(=O)c2ccc(F)cc2)CC1)c1csc([N+](=O)[O-])c1 (as salt: hydrochloride) [Example 98, 1-(2″-Nitro-4″-thienyl)-3-(4′-p-fluorobenzoyl-1′-piperidinyl)-1-propanone hydrochloride] | 205 to 206 °C
O=C(CCN1CCN(Cc2ccccc2)CC1)c1cc2ccccc2o1 (as salt: hydrochloride) [Example 10, 1-(Benzofur-2″-yl)-3-(4′-benzyl-1′-piperazinyl)-1-propanone dihydrochloride] | 255 to 257 °C
O=C(CCN1CCN(Cc2ccccc2)CC1)c1ccc(Sc2ccccc2)cc1 (as salt: hydrochloride) [Example 69, 1-p-Phenylthiophenyl-3-(4′-benzyl-1′-piperazinyl)-3-propanone dihydrochlonde] | 210 °C (dec.)
